Earlier results, collected in patent US20060240013A1, “Diagnostics and therapeutics for diseases associated with bile acid g-protein-coupled receptor 37 (bg37)” (BAYER HEALTHCARE AG, priority 2002, published 2006).

Biological target: T1, BG37 receptor (Homo sapiens, UniProt Q8TDU6)
T1 sequence (Q8TDU6 1-330): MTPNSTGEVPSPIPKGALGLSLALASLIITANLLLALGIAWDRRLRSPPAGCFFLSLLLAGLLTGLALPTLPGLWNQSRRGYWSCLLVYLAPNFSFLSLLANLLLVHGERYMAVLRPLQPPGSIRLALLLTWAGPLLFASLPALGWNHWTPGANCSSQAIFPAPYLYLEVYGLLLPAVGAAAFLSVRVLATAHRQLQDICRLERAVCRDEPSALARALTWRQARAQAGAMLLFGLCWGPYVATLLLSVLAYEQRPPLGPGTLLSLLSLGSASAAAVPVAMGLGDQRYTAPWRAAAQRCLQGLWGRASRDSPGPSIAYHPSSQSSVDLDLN
Settings: intracellular cAMP levels modulated through BG37 receptor; Maruyama et al. (2002)

| Compound | rank order of potency of bile acids |
| --- | --- |
| C[C@H](CCC(=O)O)[C@H]1CC[C@H]2[C@@H]3[C@H](O)C[C@@H]4C[C@H](O)CC[C@]4(C)[C@H]3CC[C@]12C [chenodeoxycholic acid] | lithocholic acid>deoxycholic acid>chenodeoxycholic acid>cholic acid |
| C[C@H](CCC(=O)O)[C@H]1CC[C@H]2[C@@H]3[C@H](O)C[C@@H]4C[C@H](O)CC[C@]4(C)[C@H]3C[C@H](O)[C@]12C [cholic acid] | lithocholic acid>deoxycholic acid>chenodeoxycholic acid>cholic acid |
